Our source for the EC50 and Activity values is ChEMBL document CHEMBL1151388, “Isolation and Structure of 14,15-Epoxyprieurianin From the South American Tree Guarea guidona” (1982).

Assay [1] relates to P388. Briefly: Cytotoxicity against mouse P388 cells. In kind it is functional. As to conditions: for EC50: read-out: ED50 (the source's name).
In assay [2] the test system is P388. Briefly: In vivo cytotoxicity against mouse P388 cells up to 8 mg/kg. In kind it is functional, organism-based. Details: dose 8 mg/kg.

Converted amounts (≈) assume the structure as drawn. The source made the active and inactive calls. The rule behind the calls is not given here.

`C=C1[C@H]([C@]2(C)[C@@H](OC(C)=O)CC(=O)O[C@](C)(COC(C)=O)[C@@H]2CC(=O)OC)[C@@H](OC=O)[C@H](OC(=O)[C@H](O)[C@H](C)CC)[C@]2(C)[C@@H](c3ccoc3)C[C@@H]3O[C@]132`: the EC50 in the assay with P388 [1] was determined as 0.47 µg/mL (≈ 0.629 µM).

As for `C=C1[C@@H]([C@@]2(C)[C@@H](OC(C)=O)CC(=O)O[C@](C)(COC(C)=O)[C@@H]2C(=O)OC)[C@@H](OC=O)[C@H](OC(=O)[C@H](O)[C@H](C)CC)[C@@]2(C)[C@H](c3ccoc3)CC(=O)[C@]12O` [PRIEURIANIN], the result with P388 [2] was inactive. In addition, the EC50 in the assay on P388 [1] came to 4.4 µg/mL (≈ 5.88 µM).

Turning to `CC1(C)C(=O)C=C[C@]2(C)[C@H]3CC[C@@]4(C)[C@H](c5ccoc5)OC(=O)[C@H]5O[C@]54[C@]3(C)C(=O)C[C@@H]12`, the outcome in the assay on P388 [1] was inactive.
